Source: patent US20250327032A1, “AGENT FOR AVOIDING IMMUNE RESPONSE OF TRANSGENIC CELLS” (HYPERION DRUG DISCOVERY CO., LTD., priority 2021, published 2025)

Legend:
[1] = system: IFN-α; test: IFN-α expression level (qPCR) after introduction of GFP-tagged CAR-T plasmid; type: cell-based, human; settings: Jurkat E6.1; JSH-23 0.1 μM; compared to CAR-T plasmid introduced without JSH-23
[2] = system: human mesenchymal stem cells; test: Introduction of GFP viral vector (polybrene method), yield of GFP-positive cells; type: cell-based; settings: JSH-23 1 μM; GFP viral vector MOI 10, polybrene 5 μg/mL
Description: Human mesenchymal stem cells were seeded in a 6-well plate to be about 2,000 cells/cm^2. Human myoblasts were seeded in another 6-well plate to be about 2,000 cells/cm^2. As a culture solution, a basal medium for each cell supplemented with JSH-23 was used. JSH-23 was added at 1 μM to the culture solution used for human mesenchymal stem cells, and at 0.1 μM to the culture solution used for human myoblasts. As a control, a basal medium, i.e., αMEM (+10% serum) for human mesenchymal stem cells and MCDB131 (+10% serum) for human myoblasts, to which 0.1% (v/v) DMSO instead of JSH-23 was added was used as a culture solution.
A mixed solution was prepared by mixing GFP viral vector and a polybrene solution. The amount of GFP viral vector was prepared to be MOI of 10, and the amount of polybrene was prepared to be 5 μg/mL. […]
Four days after the addition of the virus-free culture solution, the cells were detached with a cell detachment solution and centrifuged at 600×g for 5 minutes using a centrifuge, to collect the cells. The collected cells were counted using a hemocytometer. Furthermore, the GFP-positive percentage of the collected cells was measured using a flow cytometer. The yield of the number of GFP-positive cells was calculated from the number of cells counted and the GFP-positive percentage.

[3] = system: TNF-α; test: TNF-α expression level (qPCR) after introduction of GFP mRNA containing pseudouridine; type: cell-based; settings: human mesenchymal stem cells; JSH-23 10 μM; GFP mRNA containing pseudouridine 10 pg/cell; compared to pseudouridine only
Description: Reduction of TNF-α expression level using JSH-23 in introduction of GFP mRNA into human mesenchymal stem cells (hMSCs) Human mesenchymal stem cells were seeded in a 6-well plate to be about 10,000 cells/cm^2. As a culture solution, αMEM (+10% serum) supplemented with 10 μM of JSH-23 was used. As a control, αMEM (+10% serum) supplemented with 0.1% (v/v) DMSO instead of JSH-23 was used as a culture solution.
(§1) A lipofection solution was prepared by adding Lipofectamine RNAiMAX and fluorescent protein GFP mRNA to OptiMEM. The GFP mRNA containing pseudouridine instead of uridine was used. It was prepared so that the amount of mRNA was 10 pg/cell. The prepared lipofection solution was mixed well according to the manufacturer's recommended protocol and allowed to stand at room temperature for about 15 minutes.
Next, each lipofection solution was added to the plate seeded with human mesenchymal stem cells or human myoblasts, and cultured in a CO2 incubator at 37° C. for about 1 day (18 hours). […]
cDNA was synthesized from the purified RNA using SuperScript™ III Reverse Transcriptase according to the manufacturer's protocol. qPCR was performed using synthesized cDNA and PCR primers and PowerTrack™ SYBR Green Master Mix. The measured Ct value of TNF-α was normalized with the Ct value of β-actin, a housekeeping gene.

[4] = system: human mesenchymal stem cells; test: Introduction of TERT mRNA by lipofection, number of viable cells; type: cell-based; settings: JSH-23 1 μM, 10 pg/cell
Description: (§2) Human mesenchymal stem cells were seeded in a 6-well plate to be about 10,000 cells/cm^2. Human myoblasts were seeded in another 6-well plate to be about 20,000 cells/cm^2. As a culture solution, a basal medium for each cell supplemented with 1 μM of JSH-23 was used. As a control, a basal medium for each cell supplemented with 0.1% (v/v) DMSO instead of JSH-23 was used as a culture solution.
as §1, with “TERT” for “fluorescent protein GFP”, “As the TERT mRNA, that containing uridine, or that” for “The GFP mRNA”, “pg/cell for human mesenchymal stem cells and 5 pg/cell for human myoblasts.” for “pg/cell.”
(§3) Next, each lipofection solution was added to the plate seeded with human mesenchymal stem cells or human myoblasts, and cultured in a CO2 incubator at 37° C. for about 1 day (18 hours) (human mesenchymal stem cells) or for 2 days (42 hours) (human myoblasts). After culturing, all the culture solution comprising the lipofection solution was removed and replaced with a new culture solution having the same composition as before the addition of the lipofection solution.
(§4) After another 6 hours, the above lipofection solution was newly prepared, added again to the plate seeded with human mesenchymal stem cells or human myoblasts, and cultured in a CO2 incubator at 37° C. for about 1 day (18 hours) (mesenchymal stem cells) or about 2 days (42 hours) (human myoblasts). These steps were repeated so that the introduction of genes was performed a total of 4 times.
(§5) Twenty-four hours after the final introduction of genes, the cells were detached with a cell detachment solution, centrifuged at 600×g for 5 minutes using a centrifuge, to collect the cells. The collected cells were counted using a hemocytometer.

[5] = system: human myoblasts; test: as above; type: cell-based; settings: JSH-23 1 μM, 5 pg/cell
Description: as §2
as §1, with “TERT” for “fluorescent protein GFP”, “As the TERT mRNA, that containing uridine, or that” for “The GFP mRNA”, “pg/cell for human mesenchymal stem cells and 5 pg/cell for human myoblasts.” for “pg/cell.”
as §3, §4, §5

[6] = TERT mRNA containing pseudouridine instead of uridine

## Cc1ccc(NCCCc2ccccc2)c(N)c1 [JSH-23]
[1]
  increase in the expression level of IFN-α: reduced
[2]
  number of GFP-positive cells relative to control: increased
[3]
  expression level of TNF-α (normalized with β-actin): further reduced
[4]; [6]
  yield (number of viable cells) compared to the control (control set to 1): ≥ 1.3 times
[4]; TERT mRNA containing uridine
  yield (number of viable cells) compared to the control (control set to 1): ≥ 1.5 times
[5]; [6]
  yield (number of viable cells) compared to the control (control set to 1): ≥ 5 times
[5]; TERT mRNA containing uridine
  yield (number of viable cells) compared to the control (control set to 1): ≥ 7 times
